pKi: −log10 of the molar value. Where two headings read alike, the source gives them in different places.
Assays:
KMS-12-PE Bcl-2 G101V = assay: In vitro cytotoxicity CellTiter-Glo 48 h, KMS-12-PE Bcl-2 G101V; type: cell-based; details: for Ratio (G101V/WT): C50 KMS-12-PE Bcl-2 G101V over C50 KMS-12-PE Bcl-2 WT; for IC50: 48 h, CellTiter-Glo, C50 = concentration needed to reach 50% of the cellular viability
Outline: (§1)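 Viability measured by CellTiter-Glo luminescence after 48 h compound exposure (11-point curve, 37 °C, 5% CO2). Cells: KMS-12-PE transduced with wild-type or G101V-mutant Bcl-2, FACS-sorted for TagRFP. Reported C50 = concentration reaching 50% cellular viability.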

BCL2 WT = BCL2 WT (Homo sapiens (Human), UniProt P10415); assay: TR-FRET competitive binding assay, BCL2 WT
Outline: (§2)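 Terbium-labelled N-terminal Halo-fusion BCL2 or BCLXL (E. coli), 0.5 nM, competed against fluorescein-labelled PUMA peptide (2 or 20 nM) for 2 h at 23° C in 50 mM Hepes pH 7.5, 150 mM NaCl, 5% DMSO. TR-FRET 520/495 nm ratio gave IC50 by four-parameter fit; Ki derived from IC50.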

BCL2 F104I = BCL2 F104I (Homo sapiens, UniProt P10415, F104I); assay: TR-FRET competitive binding assay, BCL2 F104I; details: Ki determined from IC50, read-out: TR_FRET EKI_Bcl2 F104I
Protocol: (§3) The relative binding potency of each compound was determined in a competitive binding assay using time resolved-fluorescence resonance energy transfer (TR-FRET). The method utilised a fluorescein labelled peptide derived from PUMA (5Flu-Ahx-[…]-NH2 wherein Ahx means 6-hexanoic acid monomer and the amino acid sequence is referred to as SEQ ID:01) which binds to a terbium labelled BCL2 or BCLXL protein. The degree of binding or corresponding compound inhibition can be quantified by the TR-FRET signal between the terbium donor and fluorescein acceptor.
(§4) The human BCL2_wild-type (also named BCL2_wt), BCL2_G101V mutant and BCLXL_wild-type were E. coli expressed as a N-terminal Halo-fusion proteins and singly labelled with Terbium on the Halo protein to afford the following amino acid sequences:
(§5) wherein the BCL2(1-207) sequence corresponds to UniProtKB® primary accession number P10415 and the BCLXL(2-196) sequence corresponds to UniProtKB® primary accession number Q07817-1.
(§6) The assay was performed in a 40 μL volume in white 384-standard well plates (Corning #3574). An 11-point serial dilution of each compound was prepared in DMSO and transferred directly to plate followed by addition of fluorescein labelled peptide and lastly protein. Final assay conditions were 0.5 nM BCL2_wt, BCL2_G101V, BCL2_D103Y, BCL2_F104I, BCL2_D111A or BCLXL_wt, 2 or 20 nM fluorescein labelled peptide, 50 mM Hepes pH 7.5, 150 mM NaCl, 0.5 mM TCEP (Tris(2-carboxyethyl)phosphine), 0.05% Tween 20, 5% DMSO. The mixture was incubated for 2 hours at 23° C.
(§7) TR-FRET measurements were performed on a Biotek Synergy Neo plate reader. TR-FRET was measured by excitation of the Terbium-donor at 340 nm and subsequent (delay time 100 μs) measurement of terbium and fluorescein emission at 495 nm and 520 nm, respectively, over a collection time of 300 μs. The TR-FRET signal was calculated as the emission-ratio at 520 nm over 495 nm.
(§8) The TR-FRET ratio readout for test compounds was normalized against 0% inhibition controls wells and 100% inhibition control wells. Test compound potency (IC50) was estimated by nonlinear regression using the sigmoidal dose-response (variable slope) using Xlfit 4 (IDBS, Guildford, Surrey, UK, model 205). Were the IC50 could not be determined the % inhibition at the highest tested concentration is given.
(§9) y=(A+((B−A)/(1+((C/x)^D))))
(§10) where y is the normalized TR-TRET ratio measurement for a given concentration of test compound, x is the concentration of test compound, A is the estimated efficacy (% inhibition) at infinite compound dilution, and B is the maximal efficacy (% inhibition). C is the IC50 value and D is the Hill slope coefficient.
(§11) The K1 values were determined from the IC50 values according to Cer et al, Nucleic Acids Res, 2009, July 1; 37 (WebServer issue): W441-W445.

KMS-12-PE Bcl-2 WT = assay: In vitro cytotoxicity CellTiter-Glo 48 h, KMS-12-PE Bcl-2 WT; type: cell-based; details: Homo sapiens, KMS-12-PE, C50 = concentration needed to reach 50% of the cellular viability
Outline: as §1

BCL2 G101V [1] = biological target: BCL2 G101V (Homo sapiens, UniProt P10415, G101V); assay: TR-FRET competitive binding assay, BCL2 G101V; details: BCL2 G101V; Ki determined from IC50; read-out: TR_FRET EKI_Bcl2 G101V
Outline: as §2

BCL2 G101V [2] = assay: TR-FRET competitive binding assay, BCL2 G101V; parameters: species or system human; details: for TR_FRET EKI G101V/WT selectivty ratio: ratio Ki BCL2 G101V / Ki BCL2 WT
Outline: as §2

BCL2 D103Y = BCL2 D103Y (Homo sapiens, UniProt P10415, D103Y); assay: TR-FRET competitive binding assay, BCL2 D103Y; details: Ki determined from IC50, read-out: TR_FRET EKI_Bcl2 D103Y
Outline: as §2

BCL2 D111A = BCL2 D111A (Homo sapiens, UniProt P10415, D111A); assay: TR-FRET competitive binding assay, BCL2 D111A; details: Ki determined from IC50, read-out: TR_FRET EKI_Bcl2 D111A
Protocol: as §3, §4, §5, §6, §7, §8, §9, §10, §11

BCLXL WT = BCLXL WT (Homo sapiens (Human), UniProt Q07817); assay: TR-FRET competitive binding assay, BCLXL WT; details: for pKi: BCLXL WT, Ki determined from IC50, read-out: TR_FRET EKI BclxL; for TR_FRET EKI BCLxL/WT selectivty ratio: ratio Ki BCLxL / Ki BCL2 WT
Outline: as §2

[3] = Ki determined from IC50, read-out: TR_FRET EKI_Bcl2 WT

Sequence of BCLXL WT (Q07817 other isoform, or with tags, fused parts or gaps): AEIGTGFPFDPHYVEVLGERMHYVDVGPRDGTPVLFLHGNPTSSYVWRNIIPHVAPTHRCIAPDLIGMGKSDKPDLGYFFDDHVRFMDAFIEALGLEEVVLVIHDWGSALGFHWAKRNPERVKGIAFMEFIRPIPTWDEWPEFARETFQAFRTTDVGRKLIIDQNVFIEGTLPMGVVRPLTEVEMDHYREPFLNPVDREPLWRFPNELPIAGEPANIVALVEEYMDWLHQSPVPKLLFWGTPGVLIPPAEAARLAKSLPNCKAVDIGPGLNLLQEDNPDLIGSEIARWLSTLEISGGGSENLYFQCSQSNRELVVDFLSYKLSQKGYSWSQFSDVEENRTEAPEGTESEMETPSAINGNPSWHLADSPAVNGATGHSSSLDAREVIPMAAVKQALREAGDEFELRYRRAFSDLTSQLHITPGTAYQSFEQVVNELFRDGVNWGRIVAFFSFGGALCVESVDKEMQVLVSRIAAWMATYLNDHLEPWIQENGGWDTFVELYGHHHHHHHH

SMILES | Ratio (G101V/WT) (KMS-12-PE Bcl-2 G101V) | IC50 (KMS-12-PE Bcl-2 G101V; Homo sapiens, KMS-12-PE) [µM] | pKi (BCL2 WT; [3]) | pKi (BCL2 F104I) | IC50 (KMS-12-PE Bcl-2 WT) [µM] | pKi (BCL2 G101V [1]) | TR_FRET EKI G101V/WT selectivty ratio (BCL2 G101V [2]) | pKi (BCL2 D103Y) | pKi (BCL2 D111A) | pKi (BCLXL WT) | TR_FRET EKI BCLxL/WT selectivty ratio (BCLXL WT) | IC50 (KMS-12-PE Bcl-2 G101V) [µM] | pKi (BCL2 WT; Ki determined from IC50, read-out: TR_FRET EKI_Bcl2) | TR_FRET EKI G101V/WT selectivty (BCL2 G101V [2]; ratio of Ki BCL2 G101V to BCL2 WT) | TR_FRET EKI BCLxL/WT selectivty (BCLXL WT; ratio of Ki BCLxL to BCL2 WT)
Cc1c(N(C(=O)c2cc(-c3cc4c(cc3C(=O)N3Cc5ccccc5C[C@H]3C)CN(C(=O)Cc3ccc(OCCN5C[C@H](C)O[C@@H](C)C5)cc3)CC4)n(C)c2C)c2ccc(O)cc2)cc(C#N)n1C (single isomer, unassigned) [Example 42, N-(5-cyano-1,2-dimethyl-1H-pyrrol-3-yl)-5-{2-[2-(4-{2-[(2R or S,6R or S)-2,6-dimethylmorpholin-4-yl]ethoxy}phenyl)acetyl]-7-[(3R)-3-methyl-1,2,3,4-tetrahydroisoquinoline-2-carbonyl]-1,2,3,4-tetrahydroisoquinolin-6-yl}-N-(4-hydroxyphenyl)-1,2-dimethyl-1H-pyrrole-3-carboxamide] | 3.77 | 0.0175 | 9.74 | 9.12 | 0.0046 | 9.52 | 1.8 | 9.21 | 9.44 | 8.52 | 16.7 | – | – | – | –
Cc1c(N(C(=O)c2cc(-c3cc4c(cc3C(=O)N3Cc5ccccc5C[C@H]3C)CN(C(=O)Cc3ccc(N5CCC(N6CCOCC6)C5)cc3)CC4)n(C)c2C)c2ccc(O)cc2)cc(C#N)n1C (single isomer, unassigned) [Example 63, N-(5-cyano-1,2-dimethyl-1H-pyrrol-3-yl)-N-(4-hydroxyphenyl)-1,2-dimethyl-5-{7-[(3R)-3-methyl-1,2,3,4-tetrahydroisoquinoline-2-carbonyl]-2-(2-{4-[(3R or S)-3-(morpholin-4-yl)pyrrolidin-1-yl]phenyl}acetyl)-1,2,3,4-tetrahydroisoquinolin-6-yl}-1H-pyrrole-3-carboxamide] | 5.84 | 0.046 | 9.96 | 8.55 | 0.0079 | 9.05 | 7.8 | 9.34 | 9.38 | 8.77 | 15.5 | – | – | – | –
Cc1c(N(C(=O)c2cc(-c3cc4c(cc3C(=O)N3Cc5ccccc5C[C@H]3CN3CCCCC3)CN(C(=O)Cc3ccc(OCCN5CCOC(C)C5)cc3F)CC4)n(C)c2C)c2ccc(O)cc2)cc(C#N)n1C (single isomer, unassigned) [Example 108, N-(5-cyano-1,2-dimethyl-1H-pyrrol-3-yl)-5-[2-(2-{2-fluoro-4-[2-((2S or R)-2-methylmorpholin-4-yl)ethoxy]phenyl}acetyl)-7-[(3S)-3-[(piperidin-1-yl)methyl]-1,2,3,4-tetrahydroisoquinoline-2-carbonyl]-1,2,3,4-tetrahydroisoquinolin-6-yl]-N-(4-hydroxyphenyl)-1,2-dimethyl-1H-pyrrole-3-carboxamide] | 5.85 | 0.0383 | 10.15 | 9.72 | 0.0066 | 9.40 | 5.1 | 9.85 | 9.80 | 8.68 | 30.9 | – | – | – | –
Cc1c(N(C(=O)c2cc(-c3cc4c(cc3C(=O)N3Cc5ccccc5C[C@H]3CN3CCCCC3)CN(C(=O)Cc3ccc(OCC(C)N5CCOCC5)cc3)CC4)n(C)c2C)c2ccc(O)cc2)cc(C#N)n1C (single isomer, unassigned) [Example 127, N-(5-cyano-1,2-dimethyl-1H-pyrrol-3-yl)-N-(4-hydroxyphenyl)-1,2-dimethyl-5-[2-(2-{4-[(2S or R)-2-(morpholin-4-yl)propoxy]phenyl}acetyl)-7-[(3S)-3-[(piperidin-1-yl)methyl]-1,2,3,4-tetrahydroisoquinoline-2-carbonyl]-1,2,3,4-tetrahydroisoquinolin-6-yl]-1H-pyrrole-3-carboxamide] | 3.58 | – | 10.30 | 9.59 | 0.0077 | 9.70 | 4.3 | 9.80 | 9.89 | 8.44 | 76.6 | 0.0277 | – | – | –
Cc1c(N(C(=O)c2cc(-c3cc4c(cc3C(=O)N3Cc5ccccc5C[C@H]3CN3CCCCC3)CN(C(=O)Cc3ccc(OCC(C)N5CCOCC5)cc3F)CC4)n(C)c2C)c2ccc(O)cc2)cc(C#N)n1C (single isomer, unassigned) [Example 135, N-(5-cyano-1,2-dimethyl-1H-pyrrol-3-yl)-5-[2-(2-{2-fluoro-4-[(2S or R)-2-(morpholin-4-yl)propoxyphenyl}acetyl)-7-[(3S)-3-[(piperidin-1-yl)methyl]-1,2,3,4-tetrahydroisoquinoline-2-carbonyl]-1,2,3,4-tetrahydroisoquinolin-6-yl]-N-(4-hydroxyphenyl)-1,2-dimethyl-1H-pyrrole-3-carboxamide] | 7.72 | 0.0339 | 10.15 | 9.47 | 0.0044 | 9.40 | 5.8 | 9.68 | 9.77 | 8.35 | 60.8 | – | – | – | –
Cc1c(N(C(=O)c2cc(-c3cc4c(cc3C(=O)N3Cc5ccccc5C[C@H]3C)CN(C(=O)Cc3cccc(N5CCOCC5)c3)CC4)n(C)c2C)c2ccc(O)cc2)cc(C#N)n1C [Example 6, N-(5-cyano-1,2-dimethylpyrrol-3-yl)-N-(4-hydroxyphenyl)-1,2-dimethyl-5-(7-{[(3R)-3-methyl-3,4-dihydro-1H-isoquinolin-2-yl]carbonyl}-2-{2-[3-(morpholin-4-yl)phenyl]acetyl}-3,4-dihydro-1H-isoquinolin-6-yl)pyrrole-3-carboxamide] | 5.34 | 0.0566 | 9.89 | 8.69 | 0.0106 | 9.15 | 5.1 | 9.17 | – | 8.96 | 8.5 | – | – | – | –
Cc1c(N(C(=O)c2cc(-c3cc4c(cc3C(=O)N3Cc5ccccc5C[C@H]3C)CN(C(=O)Cc3ccc(OCCN5CCOCC5)cc3)CC4)n(C)c2C)c2ccccc2)cc(C#N)n1C [Example 236] | – | – | – | 8.95 | 0.00418 | 9.14 | – | 9.10 | 9.88 | 8.38 | – | – | 10.11 | 9.3 | 53.1
